# According to patent US11744863B2, “Process for preparing a pooled human platelet lysate, pooled human platelet lysate and its use for treating neurological disorders” (priority 2017, dated 2023):
# Test: Body weight evolution of treated mice
# Assay type: in vivo
# Protocol: The mice enrolled were FVB-Tg(Sod1*G86R)M1Jwg/J mice from JAX laboratories. Animals were group-housed (10 per cage) in a temperature-controlled room (22±2° C.) with a 12/12-hour light/dark cycle. Food and water were feed ad-libitum. […] Breeding was realized (since 2013 may) in SOPF facility and genotyping is performed by qPCR (from tail biopsy). Animal are identified with earrings.
# Mice were handled and weighted at the age of 60 days. Canula implantation in intra cerebro-ventricular (ICV) by stereotaxie start at this date and mice are acclimated during 1 week.
# (Gurney and al, Neurology, 1998). Then they were evaluated, twice a week (i.e. body weight and neuroscore), from the age of 67 days to their death.
# Two different treatments are performed from 75 days to death: • HT_pHPL prepared as described in example 1 and at 1 g/L, pH 7.4 versus vehicle. The dose of HT_pHPL administrated by intermittent ICV was 4 μL, three times a week at rate of 0.5 μL/min. […]
structure (smiles),measurement,setting,value
Nc1nc2ccc(OC(F)(F)F)cc2s1 [Riluzole],day of body weight decrease,Tg mice FVB-Tg(Sod1*G86R),88 days
same,effect on body weight evolution,WT mice,no effect
